Laboratory results reported in article PMC8308496, “RP-18 TLC Chromatographic and Computational Study of Skin Permeability of Steroids” (Pharmaceuticals, 2021).
Where two headings read alike, the source gives them in different places.

How the values were obtained:
[1] = RP-18 thin layer chromatography (RM); type: physicochemical; details: RP-18 F254s TLC, acetonitrile/pH 7.4 phosphate buffered saline 70:30 (v/v); RM = log (1/Rf−1)
Experimental: Thin layer chromatography was performed according to [33] on 10 × 20 cm glass-backed RP-18 F254s TLC plates from Merck, Germany (layer thickness 0.25 mm). Before use, the plates were prewashed with methanol-dichloromethane 1:1 (v/v) and dried overnight in ambient conditions. […] The chromatographic plates were developed in a vertical chromatographic chamber lined with filter paper and previously saturated with the mobile phase vapor for 20 min. The mobile phase consisted of acetonitrile/pH 7.4 phosphate buffered saline 70:30 (v/v). The development distance was 95 mm from the plate bottom edge. After development, the plates were dried at room temperature and examined under UV light (254 nm) and with the Desaga CD60 densitometer (Multiwavelength Scan, 200–300 nm at 20 nm intervals). All chromatograms were repeated in duplicate, and the mean Rf values were used in further investigations. The chromatographic parameter RM considered in these investigations was defined by Bate-Smith and Westall: RM= log (1/Rf−1).

[2] = experimental, cited from earlier work
[3] = hydrocortisone esters 17 to 27, ref 40 (Anderson et al.)
[4] = nonsteroid compounds 39 to 46, source not given

SMILES	RM [1]	logKp^exp ([2]; compounds 1 to 16)	also measured
C[C@@H]1C[C@H]2[C@@H]3CCC4=CC(=O)C=C[C@]4(C)[C@@]3(F)[C@@H](O)C[C@]2(C)[C@@]1(O)C(=O)CO [compound 1, Dexamethasone]	−0.35		
C[C@]12CCC(=O)C=C1CC[C@@H]1[C@@H]2[C@@H](O)C[C@@]2(C)[C@H]1CC[C@]2(O)C(=O)CO [compound 2, Hydrocortisone]	−0.33	−4.79	
CC(=O)[C@H]1CC[C@H]2[C@@H]3CCC4=CC(=O)CC[C@]4(C)[C@H]3CC[C@]12C [compound 3, Progesterone]	0.60		
C[C@]12C=CC(=O)C=C1CC[C@@H]1[C@@H]2[C@@H](O)C[C@@]2(C)[C@H]1CC[C@]2(O)C(=O)CO [compound 4, Prednisolone]	−0.33	−4.35	
C[C@]12CC[C@@H]3c4ccc(O)cc4CC[C@H]3[C@@H]1CCC2=O [compound 5, Estrone]	0.09	−2.44	
C[C@]12CCC(=O)C=C1CC[C@@H]1[C@@H]2[C@@H](O)C[C@]2(C=O)[C@@H](C(=O)CO)CC[C@@H]12 [compound 6, Aldosterone]		−4.41	
CC(=O)[C@H]1CC[C@H]2[C@@H]3CC=C4C[C@@H](O)CC[C@]4(C)[C@H]3CC[C@]12C [compound 8, Pregnenolone]		−2.82	
CC(=O)[C@@]1(O)CC[C@H]2[C@@H]3CCC4=CC(=O)CC[C@]4(C)[C@H]3CC[C@@]21C [compound 9, 17-α-Hydroxyprogesterone]		−3.22	
C[C@]12CC[C@H]3[C@@H](CCC4=CC(=O)CC[C@@]43C)[C@@H]1CC[C@@H]2C(=O)CO [compound 11, Deoxycorticosterone]		−3.34	
C[C@]12CC[C@H]3[C@@H](CCC4=CC(=O)CC[C@@]43C)[C@@H]1CC[C@@H]2O [compound 12, Testosterone]		−2.65	
C[C@]12CCC(=O)C=C1CC[C@@H]1[C@@H]2CC[C@@]2(C)[C@H]1CC[C@]2(O)C(=O)CO [compound 13, Cortexolone]		−4.12	
C[C@]12CC[C@@H]3c4ccc(O)cc4CC[C@H]3[C@@H]1CC[C@@H]2O [compound 14, Estradiol]		−2.21	
C[C@]12CCC(=O)C=C1CC[C@@H]1[C@@H]2C(=O)C[C@@]2(C)[C@H]1CC[C@]2(O)C(=O)CO [compound 16, Cortisone]		−5.00	
C[C@]12CCC(=O)C=C1CC[C@@H]1[C@@H]2[C@@H](O)C[C@@]2(C)[C@H]1CC[C@]2(O)C(=O)COC(=O)CCCCCO [compound 23, HC 6-hydroxyhexanoate]			logKp^exp [2, 3]: −3.04
COC(=O)CCCCCC(=O)OCC(=O)[C@@]1(O)CC[C@H]2[C@@H]3CCC4=CC(=O)CC[C@]4(C)[C@H]3[C@@H](O)C[C@@]21C [compound 25, HC methylpimelate]			logKp^exp [2, 3]: −2.27
CCCCCC(=O)OCC(=O)[C@@]1(O)CC[C@H]2[C@@H]3CCC4=CC(=O)CC[C@]4(C)[C@H]3[C@@H](O)C[C@@]21C [compound 26, HC hexanoate]			logKp^exp [2, 3]: −1.74
CCCCCCCC(=O)OCC(=O)[C@@]1(O)CC[C@H]2[C@@H]3CCC4=CC(=O)CC[C@]4(C)[C@H]3[C@@H](O)C[C@@]21C [compound 27, HC octanoate]			logKp^exp [2, 3]: −1.21
C[C@]12CC[C@@H]3c4ccc(OC(=O)c5ccccc5)cc4CC[C@H]3[C@@H]1CC[C@@H]2O [compound 28, Estradiol benzoate]	0.91		

SMILES	RM [1]	logKp^exp ([2]; compounds 1 to 16)	also measured
CC(=O)OCC(=O)[C@@]1(O)CC[C@H]2[C@@H]3CCC4=CC(=O)CC[C@]4(C)[C@H]3[C@@H](O)C[C@@]21C [compound 29, HC acetate]	−0.12		
CC(=O)OCC(=O)[C@H]1CC[C@H]2[C@@H]3CCC4=CC(=O)CC[C@]4(C)[C@H]3CC[C@]12C [compound 30, Deoxycortisone acetate]	0.41		
CC(=O)OCC(=O)[C@@]1(O)CC[C@H]2[C@@H]3CCC4=CC(=O)CC[C@]4(C)[C@H]3C(=O)C[C@@]21C [compound 31, Cortisone acetate]	−0.12		
CCC(=O)O[C@H]1CC[C@H]2[C@@H]3CCC4=CC(=O)CC[C@]4(C)[C@H]3CC[C@]12C [compound 32, Testosterone propionate]	0.85		
C[C@]12CCC(=O)C=C1CC[C@@H]1[C@@H]2CC[C@@]2(C)[C@H]1CC[C@]2(C)O [compound 33, Methyltestosterone]	0.41		
CCCCCCC(=O)O[C@H]1CC[C@H]2[C@@H]3CCC4=CC(=O)CC[C@]4(C)[C@H]3CC[C@]12C [compound 34, Testosterone enanthate]	1.38		
CC(=O)S[C@@H]1CC2=CC(=O)CC[C@]2(C)[C@H]2CC[C@@]3(C)[C@@H](CC[C@@]34CCC(=O)O4)[C@H]12 [compound 35, Spironolactone]	0.14		
COC(=O)[C@@H]1CC2=CC(=O)CC[C@]2(C)[C@@]23O[C@@H]2C[C@@]2(C)[C@@H](CC[C@@]24CCC(=O)O4)[C@H]13 [compound 36, Eplerenone]	−0.21		
C[C@H]1O[C@@H](O[C@H]2[C@@H](O)C[C@H](O[C@H]3[C@@H](O)C[C@H](O[C@H]4CC[C@@]5(C)[C@H](CC[C@@H]6[C@@H]5C[C@@H](O)[C@]5(C)[C@@H](C7=CC(=O)OC7)CC[C@]65O)C4)O[C@@H]3C)O[C@@H]2C)C[C@H](O)[C@@H]1O [compound 37, Digoxin]	−0.91		
C#C[C@]1(O)CC[C@H]2[C@@H]3[C@H](C)CC4=C(CCC(=O)C4)[C@H]3CC[C@@]21C [compound 38, Tibolone]	0.33		
CC(C)Cc1ccc(C(C)C(=O)O)cc1 (centres unmarked) [compound 39, Ibuprofen]	0.08		logKp^exp [2, 4]: −1.44
CNC(=C[N+](=O)[O-])NCCSCc1ccc(CN(C)C)o1 [compound 40, Ranitidine]	−0.66		
CC(=O)Oc1ccccc1C(=O)O [compound 41, Aspirin]	−0.50		logKp^exp [2, 4]: −2.14
COC(=O)c1ccc(O)cc1 [compound 42, Methylparaben]	−0.41		logKp^exp [2, 4]: −2.04
O=C(O)c1ccccc1O [compound 43, Salicylic acid]	−0.37		logKp^exp [2, 4]: −2.84
COc1ccc2c(c1)c(CC(=O)O)c(C)n2C(=O)c1ccc(Cl)cc1 [compound 44, Indomethacin]	−0.07		
CN1C(C(=O)Nc2ccccn2)=C(O)c2ccccc2S1(=O)=O [compound 45, Piroxicam]	0.00		logKp^exp [2, 4]: −3.81
COc1ccc2cc([C@H](C)C(=O)O)ccc2c1 [compound 46, Naproxen]	−0.16		
